The numbers were not newly measured in patent US20020122815A1, “Compositions and methods of carbohydrate dosing” (priority 2001, published 2002), which cites them from elsewhere.

Data set [1] deals with serum glucose levels. Conditions: compared with glucose or sucrose.
The conditions of data set [2]: in large amounts.
The test system of data set [3] is serum glucose levels. Conditions: serum glucose response to 50 g carbohydrate as percentage of standard meal (usually 50 g glucose).

`OC[C@@H](O)[C@@H](O)[C@H](O)[C@H](O)CO` [Mannitol]: the “rise in serum glucose” value with serum glucose levels [1] is on record as “less of a rise in serum glucose than glucose or sucrose”. In addition, the adverse effect result in data set [2] is reported as “may cause diarrhea”.

On to `O=C(CO)[C@@H](O)[C@H](O)[C@H](O)CO` [fructose], for which, in the data set on serum glucose levels [3], the “Glycemic Index” value is on record as 23.

For `OC[C@@H](O)[C@@H](O)[C@H](O)[C@@H](O)CO` [sorbitol], the “rise in serum glucose” value in the data set on serum glucose levels [1] is on record as “less of a rise in serum glucose than glucose or sucrose”. The adverse effect entry in data set [2] was “may cause diarrhea”.

Consider `OC[C@H]1O[C@@](CO)(O[C@H]2O[C@H](CO)[C@@H](O)[C@H](O)[C@H]2O)[C@@H](O)[C@@H]1O` [sucrose], for which the “Glycemic Index” value in the data set with serum glucose levels [3] is 60-65.
